The structures appear in SMILES notation. Values after ≈ are worked out from the molar mass of the structure shown. Non-standard residues stand in square brackets, D forms with d. Residues, ends and D or L forms follow the SMILES beside them. N(1-naphthylmethyl)Gly = O=C(O)CNCc1cccc2ccccc12; d1Nal = N[C@H](Cc1cccc2ccccc12)C(=O)O; N(4-MeBn)Gly = Cc1ccc(CNCC(=O)O)cc1; Gly(N-CH2CH2OH) = O=C(O)CNCCO; dNle = CCCC[C@@H](N)C(=O)O; NBuGly = CCCCNCC(=O)O; Nlys = NCCCCNCC(=O)O

In one data set the test system is red blood cell (RBC). The following applies: 0.5% RBC suspension in PBS, 1 h, 37 °C, read at 414 nm, normalized to mellitin and PBS, triplicates.
Data set [1] relates to Pseudomonas aeruginosa (ATCC 27853). In kind it is cell-based. Conditions: ATCC 27853, 18 h. The method, then:
To explore the antimicrobial activity of the library of peptides and peptidomimetics, they were tested against Acinetobacter baumannii, Corynebacterium auriscanis, Escherichia coli, Enterococcus faecalis, Enterococcus faecium, Klebsiella pneumonia, Proteus mirabilis, and Pseudomonas aeruginosa. Bacteria grown on agar plates for 18 h at 37 °C were diluted to ~1 × 10^8 CFU/mL in Mueller–Hinton broth (MHB). Two-fold serial dilutions of peptides and peptidomimetics in MHB II were inoculated with bacteria to achieve a final concentration of 5 × 10^5 CFU/mL in polypropylene 96 U-well microtiter plates (Almeco, Esbjerg, Denmark), followed by incubation at 37 °C in ambient air for 18 h. The MIC values were determined as the lowest concentration showing no visible bacterial growth. Experiments were performed twice (in technical triplicates) on two different days.

Data set [2] relates to Methicillin sensitive Staphylococcus pseudintermedius (26916). In kind it is cell-based. The following applies: 18 h.
The test system of data set [3] is Staphylococcus aureus (ATCC 29213). Type of data set: cell-based. Conditions: ATCC 29213, 18 h.
The test system of data set [4] is Methicillin resistant Staphylococcus pseudintermedius, (C22963). Type of data set: cell-based. Conditions: 18 h.

Method for red blood cell (RBC): Briefly, 75 µL of peptide in PBS was mixed with 75 µL of a 0.5% red blood cell (RBC) suspension in PBS, and incubated for 1 h at 37 °C. The hemoglobin release was then measured at 414 nm and normalized, using mellitin as positive control and PBS as negative control. Experiments were done in triplicates.

Take `CCCCN(CC(N)=O)C(=O)CN(CCCCN)C(=O)CN(Cc1cccc2ccccc12)C(=O)CN(CCO)C(=O)CN(Cc1ccc(C)cc1)C(=O)CN(Cc1cccc2ccccc12)C(=O)CN(CCCCN)C(=O)CNCCCCN` [compound 12] (H-[Nlys][Nlys][N(1-naphthylmethyl)Gly][N(4-MeBn)Gly][Gly(N-CH2CH2OH)][N(1-naphthylmethyl)Gly][Nlys][NBuGly]-NH2; N-terminus assumed): the “HA, percentage of hemolysis at 150 µM” value in the data set on red blood cell (RBC) was 5%. In data set [1], the “MIC PA” value was more than 64 µg/mL. In addition, in data set [2], the “MIC MSSP” value is reported as 8 µg/mL (≈ 6.83 µM). Besides, the “MIC SA” value in data set [3] was 32 µg/mL (≈ 27.3 µM). The “MIC MRSP” value in data set [4] worked out at 8 µg/mL (≈ 6.83 µM).
Regarding `Cc1ccc(CN(CC(=O)N(CCCCN)CC(=O)N(CC(=O)N(CCCCN)CC(=O)NCC(N)=O)Cc2cccc3ccccc23)C(=O)CN(Cc2cccc3ccccc23)C(=O)CN(CCCCN)C(=O)CNCCCCN)cc1` [compound 8] (H-[Nlys][Nlys][N(1-naphthylmethyl)Gly][N(4-MeBn)Gly][Nlys][N(1-naphthylmethyl)Gly][Nlys]G-NH2; N-terminus assumed), in the data set with red blood cell (RBC), the “HA, percentage of hemolysis at 150 µM” value came to 49%. For the same compound, the “MIC PA” value in data set [1] is 32 to 64 µg/mL. Moreover, the “MIC MSSP” value in data set [2] is recorded as 8 µg/mL (≈ 7 µM). Further, in data set [3], the “MIC SA” value amounted to 32 µg/mL (≈ 28 µM). Also, in data set [4], the “MIC MRSP” value is 8 µg/mL (≈ 7 µM).
Turning to `CCCC[C@@H](NC(=O)[C@@H](CCCCN)NC(=O)[C@@H](Cc1cccc2ccccc12)NC(=O)[C@@H](CCCCN)NC(=O)CN(Cc1ccc(C)cc1)C(=O)CN(Cc1cccc2ccccc12)C(=O)CN(CCCCN)C(=O)CNCCCCN)C(N)=O` [compound 13] (H-[Nlys][Nlys][N(1-naphthylmethyl)Gly][N(4-MeBn)Gly][dK][d1Nal][dK][dNle]-NH2; N-terminus assumed), the “HA, percentage of hemolysis at 150 µM” value with red blood cell (RBC) is on record as 34%. Moreover, the “MIC PA” value in data set [1] is recorded as 8 µg/mL (≈ 6.67 µM). Also, the “MIC MSSP” value in data set [2] was determined as 4 µg/mL (≈ 3.34 µM). Moreover, the “MIC SA” value in data set [3] was 8 µg/mL (≈ 6.67 µM). Besides, the “MIC MRSP” value in data set [4] was 4 µg/mL (≈ 3.34 µM).
For the compound `CCCCN(CC(N)=O)C(=O)CN(CCCCN)C(=O)CN(Cc1cccc2ccccc12)C(=O)CN(CCCCN)C(=O)[C@@H](Cc1ccccc1)NC(=O)[C@@H](Cc1cccc2ccccc12)NC(=O)[C@@H](CCCCN)NC(=O)[C@H](N)CCCCN` [compound 14] (H-[dK][dK][d1Nal][dF][Nlys][N(1-naphthylmethyl)Gly][Nlys][NBuGly]-NH2; N-terminus assumed), in data set [1], the “MIC PA” value is on record as 64 µg/mL (≈ 54 µM). In addition, the “MIC MSSP” value in data set [2] amounted to 4 µg/mL (≈ 3.38 µM). In data set [3], the “MIC SA” value stood at 16 µg/mL (≈ 13.5 µM). Moreover, the “MIC MRSP” value in data set [4] turned out to be 4 µg/mL (≈ 3.38 µM).
As for `CCCC[C@@H](NC(=O)CN(CCCCN)C(=O)[C@@H](Cc1cccc2ccccc12)NC(=O)CN(CCCCN)C(=O)[C@@H](Cc1ccccc1)NC(=O)[C@@H](Cc1cccc2ccccc12)NC(=O)CN(CCCCN)C(=O)CNCCCCN)C(N)=O` [compound 15] (H-[Nlys][Nlys][d1Nal][dF][Nlys][d1Nal][Nlys][dNle]-NH2; N-terminus assumed), in data set [1], the “MIC PA” value is reported as more than 64 µg/mL. Also, in data set [2], the “MIC MSSP” value is given as 4 µg/mL (≈ 3.38 µM). Also, the “MIC SA” value in data set [3] was found to be 32 µg/mL (≈ 27 µM). For the same compound, the “MIC MRSP” value in data set [4] stood at 4 µg/mL (≈ 3.38 µM).
As to `CCCCN(CC(N)=O)C(=O)[C@@H](CCCCN)NC(=O)CN(Cc1cccc2ccccc12)C(=O)[C@@H](CCCCN)NC(=O)CN(Cc1ccc(C)cc1)C(=O)CN(Cc1cccc2ccccc12)C(=O)[C@@H](CCCCN)NC(=O)[C@H](N)CCCCN` [compound 16] (H-[dK][dK][N(1-naphthylmethyl)Gly][N(4-MeBn)Gly][dK][N(1-naphthylmethyl)Gly][dK][NBuGly]-NH2; N-terminus assumed), in data set [1], the “MIC PA” value turned out to be 64 µg/mL (≈ 53.4 µM). Moreover, the “MIC MSSP” value in data set [2] is given as 4 µg/mL (≈ 3.34 µM). Besides, the “MIC SA” value in data set [3] worked out at 16 µg/mL (≈ 13.3 µM). For the same compound, the “MIC MRSP” value in data set [4] is 4 µg/mL (≈ 3.34 µM).

These data come from publication PMC6470533, “Structure–Activity Study, Characterization, and Mechanism of Action of an Antimicrobial Peptoid D2 and Its D- and L-Peptide Analogues” (Molecules, 2019).
